{
  "source": "patent US8716030B2",
  "about": "“Means for the inhibition of anti-β1-adrenergic receptor antibodies” (Julius-Maximillians-Universitat Wurzburg, A Germany …, priority 2005, dated 2014)",
  "key": {"[1]": {"test_system": "rats immunized against the second β1-receptor loop (β1-ECII)", "test": "Prevention of immune-cardiomyopathy in the human analogue rat model"}, "CD4+ T-cells": {"test_system": "CD4+ T-cells", "test": "T-cell recall assay with CD4+ T-cells from immunized animals (FIG. 19)", "format": "cell-based, rat", "conditions": "T-cells from prophylactically or therapeutically treated immunized animals; peptide 10 μg/ml, FP 1.0 or 0.1 μg/mL", "experimental": "“Cont.” means the respective not immunized control animals. The assays were carried out according to Schmidt J. et al. (2003) J Neuroimmunol. 140, 143-152. In brief, to purify CD4+ T-cells from the splenic cell preparations, B-cells and CD8+ T-cells were depleted by commercially available magnetic beads (MACS®), yielding a purity of CD4+ cells >85%. 1×10^5 CD4+ of the purified T-cells were then co-incubated in 96-well plates with 1×10^6 irradiated thymic antigen presenting cells (prepared from a younger rat). Reagents added in the different assays (conditions) were: 10 μg/ml glutathion-S-transferase (GST), 2 μg/ml Concanavalin A (ConA, positive control), 10 μg/ml 25AA-ECII peptide (Pept.25AA), and GST/beta1-ECII fusion protein (FP) at a concentration of 1.0 and 0.1 μg/ml, respectively. The measured T-cell reactivities were normalized to the respective T-cell reactivities obtained with 10 μg/ml purified protein derivative (PPD) carried out in parallel under each condition. After 48 hours of incubation, 50% of the supernatants were removed and replaced by fresh medium. The cells were then pulsed with 1.25 μCi/well [^3H]-thymidine and further incubated for 16 hours before the cells were harvested, and the DNA-incorporated radioactivity was measured using a beta-plate."}, "[2]": {"test_system": "immunized anti-β1-positive cardiomyopathic rats", "test": "Treatment of immune-cardiomyopathy in the human analogue rat model (therapy study)", "format": "in vivo, Lewis CrlBR rats", "conditions": "therapy every 4 weeks after 8 months of immunization; FIGS. 8a and 8b", "from_the_text": "Lewis CrlBR rats were used as animals. […] Therapy was started after 8 months of regular (1× monthly) immunization. Monthly immunization was continued under therapy.\nFIG. 8b is a diagram comparing the titer course of specific anti-ECII antibodies dependent on the different peptide variants used in the therapy arm of the study, whereby 25AA means the cyclic peptide Ic, 18AA means the shorter 18 amino-acid variant, and 16AA the shorter 16 amino-acid variant of the peptide. “Beta1 untreated” means immunized anti-1-positive cardiomyopathic not treated animals, “Beta1/pept. […] ECII-25AA, ECII-18AA, ECII-16AA” means immunized anti-1-positive cardiomyopathic animals treated with the 25AA-, 18AA-, or 16AA-peptide, respectively.\n[…]. In general, the number of amino acids and thus the length of the primary structure appears to be crucial for the biological effects of the peptides of the present invention. A peptide-length equal to or above 26 amino acids (primary structure) is thought to be capable of stimulating directly (that is, without the use of carrier proteins) immunocompetent T-cells and thus provoke a paradoxal increase in anti-β1-receptor antibody production through T-cell mediated B-cell stimulation. Therefore, in the frame of the therapy study a limited number of pilot animals was treated with shorter peptide-variants of the 25 amino-acid peptide Ic, i.e. variants comprising either 18 or 16 amino-acids of the cyclic peptide. The used constructs were: ECII-18AA, cyclo([…] (SEQ ID NO:1); and ECII-16AA, cyclo([…] (SEQ ID NO.2). Upon administration of shorter peptide-variants of the present invention peptide every 4 weeks, a rapid decrease in the specific anti-beta 1-ECII antibody titer was equally observed within the first 6 months of therapy."}, "[3]": {"test_system": "immunized anti-β1-positive cardiomyopathic rats", "test": "Treatment of immune-cardiomyopathy in the human analogue rat model (therapy study)", "format": "in vivo, Lewis CrlBR rats", "conditions": "for biological efficiency (reversal of the cardiomyopathic phenotype) / regression of LV dilatation: echocardiography; for biological efficiency (reversal of the cardiomyopathic phenotype): FIGS. 10d and 11d; for regression of LV dilatation: therapy study; for progression of the disease monitored by echocardiography: within the 12 months of treatment, compared with untreated antibody positive animals, FIGS. 10 and 11"}, "[4]": {"test_system": "rats immunized against the second β1-receptor loop (β1-ECII)", "conditions": "rat, in vivo"}},
  "note": "Entries after “also recorded” stand apart in the source; their conditions may differ. Read-outs that look alike come from different tables or passages of the source.",
  "data": [
    {"compound": "cyclo(Ala-Arg-Ala-Glu-Ser-Asp-Glu-Ala-Arg-Arg-Cys-Tyr-Asn-Asp-Pro-Lys-Cys-Cys-Asp-Phe-Val-Thr-Asn-Arg-Gln) (cyclo(ARAESDEARRCYNDPKCCDFVTNRQ); not fully specified; printed as cyclo(Ala-Arg-Ala-Glu-Ser-Asp-Glu-Ala-Arg-Arg-Cys-Tyr-Asn-Asp-Pro-Lys-Cys-Cys-Asp-Phe-Val-Thr-Asn-Arg-Gln); cysteine pairing not given here) [peptide Ic]", "values": [
      {"measurement": "specific anti-β1-ECII antibody-titer", "setting": "[1]; 1 mg/kg s.c. or i.v. every 4 weeks, prophylactic, FIG. 4", "result": "prevented a further increase of the specific anti-β1-ECII antibody-titer with the titer even continuously declining"},
      {"measurement": "immune response upon antigen boost every 4 weeks", "setting": "[1]; from the fifth month on, FIG. 4", "result": "no more immune response"},
      {"measurement": "stimulation and proliferation of CD4+ T-cells", "setting": "CD4+ T-cells", "result": "neither treatment group resulted in a significant stimulation"},
      {"measurement": "circulating specific anti-β1-ECII antibody titer", "setting": "[2]", "result": "surprisingly rapid decrease; also recorded: reduced by about a same extent"},
      {"measurement": "biological efficiency (reversal of the cardiomyopathic phenotype)", "setting": "[3]", "result": "reversal of the cardiomyopathic phenotype"},
      {"measurement": "regression of LV dilatation", "setting": "[3]", "result": "significant regression of LV dilatation"},
      {"measurement": "progression of the disease monitored by echocardiography", "setting": "[3]", "result": "no progression"},
      {"measurement": "heart rate", "setting": "[4]", "result": "did neither decrease heart rate"}
    ]},
    {"compound": "cyclo(Ala-Arg-Arg-Cys-Tyr-Asn-Asp-Pro-Lys-Cys-Cys-Asp-Phe-Val-Tyr-Gln) (cyclo(ARRCYNDPKCCDFVYQ); not fully specified; printed as cyclo(Ala-Arg-Arg-Cys-Tyr-Asn-Asp-Pro-Lys-Cys-Cys-Asp-Phe-Val-Tyr-Gln); cysteine pairing not given here) [ECII-16AA]", "values": [
      {"measurement": "circulating specific anti-β1-ECII antibody titer", "setting": "[2]", "result": "remain stable instead of decreasing"},
      {"measurement": "biological efficiency (reversal of the cardiomyopathic phenotype)", "setting": "[3]", "result": "ambiguous results in 2 treated rats with one animal having complete reversal of the cardiomyopathic phenotype, the other animal progressive LV dilatation and dysfunction"},
      {"measurement": "regression of LV dilatation", "setting": "[3]", "result": "obviously being less effective"},
      {"measurement": "progression of the disease monitored by echocardiography", "setting": "[3]", "result": "at least the progression of the disease was stopped or stabilized"}
    ]},
    {"compound": "cyclo(Ala-Asp-Glu-Ala-Arg-Arg-Cys-Tyr-Asn-Asp-Pro-Lys-Cys-Cys-Asp-Phe-Val-Gln) (cyclo(ADEARRCYNDPKCCDFVQ); not fully specified; printed as cyclo(Ala-Asp-Glu-Ala-Arg-Arg-Cys-Tyr-Asn-Asp-Pro-Lys-Cys-Cys-Asp-Phe-Val-Gln); cysteine pairing not given here) [ECII-18AA]", "values": [
      {"measurement": "circulating specific anti-β1-ECII antibody titer", "setting": "[2]", "result": "reduced by about a same extent"},
      {"measurement": "biological efficiency (reversal of the cardiomyopathic phenotype)", "setting": "[3]", "result": "reversal of the cardiomyopathic phenotype"},
      {"measurement": "regression of LV dilatation", "setting": "[3]", "result": "significant regression of LV dilatation"}
    ]},
    {"compound": "CC(C)NCC(O)COc1ccc(COCCOC(C)C)cc1", "note": "(stereo not drawn) [bisoprolol, reference compound]", "values": [
      {"measurement": "impact on heart rate and blood pressure", "setting": "[1]; FIG. 12 and FIG. 13, examples 3 and 4 (prevention and therapy study)", "result": "significantly reduced both heart rate and blood pressure"},
      {"measurement": "heart rate", "setting": "[1]; prophylactic treatment, FIGS. 5 and 12", "result": "significant reduction in heart rate"},
      {"measurement": "circulating specific anti-β1-ECII antibody titer", "setting": "[2]", "result": "had even higher beta1-antibody titers"},
      {"measurement": "cardiac β1-receptor density (down-/upregulation)", "setting": "[3]; FIGS. 17 and 18 (prevention and therapy study)", "result": "β1-receptor upregulation"},
      {"measurement": "regression of LV dilatation", "setting": "[3]", "result": "could not be reversed completely"},
      {"measurement": "progression of the disease monitored by echocardiography", "setting": "[3]", "result": "no progression"}
    ]}
  ]
}
